Results on three compounds are retold here after US20080070240A2, “COMPOSITION FOR DEAMINATING DNA AND METHOD OF DETECTING METHYLATED DNA” (Toyo Boseki Kabushiki Kaisha, priority 2004, published 2008).

This series is described as follows: Measurement of solubility of sulfites in distilled water. To be noted: for Concentration, Calculated value: calculated from mass and molecular weight; for Concentration, Measured value (sulfite concentration, solubility): method 0-A. On the procedure: To a cuvette for measuring absorbance (1×1×4 cm, manufactured by Hitachi High-Technologies Co.), 3 ml of 0.1 N hydrochloric acid (manufactured by Wako Pure Chemical Co., Ltd.) was added. To the cuvette, 30 μl of a sulfite solution diluted with distilled water was added, the cuvette was covered with parafilm, and inverted 3 times to mix the solutions.
Then, the mass, volume and pH at that time were measured. In addition, with regard to each solution, the sulfite concentration was measured in accordance with the method 0-A described above.
With regard to the concentration in the table, the calculated value represents the sulfite concentration (M (mol/l)) calculated from the mass and the molecular weight of each dissolved sulfite. In addition, the measured value represents the sulfite concentration (M) measured in accordance with the method 0-A described above.

On to `O=S([O-])O.[Na+]` [Sodium bisulfite, sodium bisulfite], for which, under “30° C.”, the “pH of saturated solution” value worked out at 4.4; the “Concentration, Calculated value” is 5.2 M; the “Concentration, Measured value (sulfite concentration, solubility)” value is reported as 5.0 M. Also, where the note is “70° C.”, the “pH of saturated solution” value stood at 4.5 and the “Concentration, Calculated value” is recorded as 6.5 M.

`O=S([O-])[O-].[Na+].[Na+]` [Sodium sulfite, sodium sulfite]: the “pH of saturated solution” value runs as follows: (30° C.) 10.3; (70° C.) 10.5. The solubility – broadly, the concentration that dissolves in the medium under given conditions – (30° C., distilled water, saturated) stood at 200 mg/mL.

On to ammonium sulfite monohydrate, for which the “Concentration, Measured value (sulfite concentration, solubility)” value (30° C.) is given as 3.5 M.
